{"source": "patent US12396948B2", "about": "“Pharmaceutical compositions for the treatment of ophthalmic conditions” (Rhodes Technologies, priority 2017, dated 2025)", "assay_type_in_all_cases": "physicochemical", "key": {"[1]": {"test": "Assay/impurities of AE14B trial batch #1 (Examples 17 and 19)", "settings": "API as dispensed"}, "[2]": {"test": "AE14B trial batch #3 assay/impurities during process (Examples 22 and 23)"}, "[3]": {"test": "Forced degradation of API, drug product emulsion and placebo (Examples 30 and 32)", "experimental": "In this example, a forced degradation study was performed on the API, drug product emulsion, and a placebo. Only w/w % impurities are presented.\nIn this example, an additional forced degradation study was performed. Harsh conditions for oxidation (H2O2 concentration increased from 1% to 3%, exposure increased from 30 min to 2 hr) and conditions for photolytic degradation (exposure decreased from 24 hr to 40 min) were used in an additional forced degradation study."}, "[4]": {"settings": "Oxidation 1% H2O2 0.5 hr, 1st study"}, "[5]": {"settings": "Oxidation 3% H2O2 2 hr, 2nd study"}}, "note": "Marks after values point to notes of the source that are not given here."}
{"smiles": "CCCCCc1cc(O)c2c(c1)OC(C)(C)[C@@H]1CCC(C)=C[C@@H]21", "note": "[API]", "values": [{"measurement": "Impurity CBN", "setting": "[1]", "value": 0.18, "unit": "% Area"}, {"measurement": "THC % Area", "setting": "[1]", "value": 99.84, "unit": "% Area"}, {"measurement": "Total impurities", "setting": "[1]", "value": 0.2, "unit": "% Area"}, {"measurement": "THC Assay", "setting": "[1]; calculated using 48.4% based on the certificate of analysis", "value": "96.63* % LC"}, {"measurement": "% Area (THC from Imp)", "setting": "[2]; API Sample", "value": 99.6, "unit": "% Area"}, {"measurement": "% Area of Impurities: CBN", "setting": "[2]; API Sample", "value": 0.18, "unit": "% Area"}, {"measurement": "% Area of Impurities: RRT 0.46", "setting": "[2]; API Sample", "value": "<0.1", "unit": "% Area"}, {"measurement": "% Area of Impurities: RRT 0.93", "setting": "[2]; API Sample", "value": 0.18, "unit": "% Area"}, {"measurement": "% Area of Impurities: Total", "setting": "[2]; API Sample", "value": 0.4, "unit": "% Area"}, {"measurement": "% w/w of Impurities: CBN", "setting": "[2]; API Sample", "value": 0.15, "unit": "% w/w"}, {"measurement": "% w/w of Impurities: RRT 0.46", "setting": "[2]; API Sample", "value": "<0.1", "unit": "% w/w"}, {"measurement": "% w/w of Impurities: RRT 0.93", "setting": "[2]; API Sample", "value": 0.15, "unit": "% w/w"}, {"measurement": "% w/w of Impurities: Total", "setting": "[2]; API Sample", "value": 0.3, "unit": "% w/w"}, {"measurement": "API % w/w", "setting": "[2]; API Sample", "value": 38.29, "unit": "% w/w"}, {"measurement": "Assay % LC", "setting": "[2]; API Sample", "value": 79.12, "unit": "% LC"}, {"measurement": "Conc.", "setting": "[2]; API Sample", "value": 38.29, "unit": "% w/w"}, {"measurement": "Impurity CBN", "setting": "[2]; API Sample", "value": 0.18, "unit": "% Area"}, {"measurement": "Impurity RRT 0.93", "setting": "[2]; API Sample", "value": 0.18, "unit": "% Area"}, {"measurement": "Osmolarity (mOsm/L)", "setting": "[2]; API Sample", "value": 228, "unit": "mOsm/L"}, {"measurement": "Total impurities", "setting": "[2]; API Sample", "value": 0.4, "unit": "% Area"}, {"measurement": "pH", "setting": "[2]; API Sample", "value": 6.60}, {"measurement": "Osmolarity", "setting": "[2]; API Sample column", "value": 228, "unit": "mOsm/L"}, {"measurement": "pH", "setting": "[2]; API Sample column", "value": 6.60}, {"measurement": "total impurities excluding late eluting excipient impurities (RRT 1.22 and later)", "setting": "[2]; Batch #3", "value": 0.4, "unit": "% area"}, {"measurement": "API % w/w", "setting": "[2]; Repeated API Sample", "value": 44.2, "unit": "% w/w"}, {"measurement": "Assay % LC", "setting": "[2]; Repeated API Sample", "value": 91.29, "unit": "% LC"}, {"measurement": "% Area", "setting": "[3]; Acid 24 hr, 1st study", "value": 96.0, "unit": "% Area"}, {"measurement": "% w/w Impurities CBN", "setting": "[3]; Acid 24 hr, 1st study", "value": 1.54, "unit": "% w/w"}, {"measurement": "% w/w Impurities RRT 0.30", "setting": "[3]; Acid 24 hr, 1st study", "value": 0.08, "unit": "% w/w"}, {"measurement": "% w/w Impurities RRT 0.40", "setting": "[3]; Acid 24 hr, 1st study", "value": 0.71, "unit": "% w/w"}, {"measurement": "% w/w Impurities RRT 0.46", "setting": "[3]; Acid 24 hr, 1st study", "value": 0.22, "unit": "% w/w"}, {"measurement": "% w/w Impurities RRT 0.49", "setting": "[3]; Acid 24 hr, 1st study", "value": 0.37, "unit": "% w/w"}, {"measurement": "% w/w Impurities RRT 0.56", "setting": "[3]; Acid 24 hr, 1st study", "value": 0.18, "unit": "% w/w"}, {"measurement": "% w/w Impurities RRT 0.62", "setting": "[3]; Acid 24 hr, 1st study", "value": 0.37, "unit": "% w/w"}, {"measurement": "% w/w Impurities Total", "setting": "[3]; Acid 24 hr, 1st study", "value": 3.5, "unit": "% w/w"}, {"measurement": "Assay % LC", "setting": "[3]; Acid 24 hr, 1st study", "value": 83.6, "unit": "% LC"}, {"measurement": "% Area", "setting": "[3]; Base 24 hr, 1st study", "value": 95.3, "unit": "% Area"}, {"measurement": "% w/w Impurities CBN", "setting": "[3]; Base 24 hr, 1st study", "value": 1.19, "unit": "% w/w"}, {"measurement": "% w/w Impurities RRT 0.30", "setting": "[3]; Base 24 hr, 1st study", "value": 0.13, "unit": "% w/w"}, {"measurement": "% w/w Impurities RRT 0.40", "setting": "[3]; Base 24 hr, 1st study", "value": 1.72, "unit": "% w/w"}, {"measurement": "% w/w Impurities RRT 0.46", "setting": "[3]; Base 24 hr, 1st study", "value": 0.30, "unit": "% w/w"}, {"measurement": "% w/w Impurities RRT 0.56", "setting": "[3]; Base 24 hr, 1st study", "value": 0.42, "unit": "% w/w"}, {"measurement": "% w/w Impurities RRT 0.62", "setting": "[3]; Base 24 hr, 1st study", "value": 0.31, "unit": "% w/w"}, {"measurement": "% w/w Impurities Total", "setting": "[3]; Base 24 hr, 1st study", "value": 4.1, "unit": "% w/w"}, {"measurement": "Assay % LC", "setting": "[3]; Base 24 hr, 1st study", "value": 82.9, "unit": "% LC"}, {"measurement": "% Area", "setting": "[3]; Control, 1st study", "value": 97.5, "unit": "% Area"}, {"measurement": "% w/w Impurities CBD", "setting": "[3]; Control, 1st study", "value": 0.52, "unit": "% w/w"}, {"measurement": "% w/w Impurities CBN", "setting": "[3]; Control, 1st study", "value": 1.41, "unit": "% w/w"}, {"measurement": "% w/w Impurities RRT 0.46", "setting": "[3]; Control, 1st study", "value": 0.28, "unit": "% w/w"}, {"measurement": "% w/w Impurities Total", "setting": "[3]; Control, 1st study", "value": 2.2, "unit": "% w/w"}, {"measurement": "Assay % LC", "setting": "[3]; Control, 1st study", "value": 85.8, "unit": "% LC"}, {"measurement": "% Area", "setting": "[3]; Control, 2nd study", "value": 97.4, "unit": "% Area"}, {"measurement": "% w/w Impurities CBD", "setting": "[3]; Control, 2nd study", "value": 0.58, "unit": "% w/w"}, {"measurement": "% w/w Impurities CBN", "setting": "[3]; Control, 2nd study", "value": 1.41, "unit": "% w/w"}, {"measurement": "% w/w Impurities RRT 0.46", "setting": "[3]; Control, 2nd study", "value": 0.26, "unit": "% w/w"}, {"measurement": "% w/w Impurities Total", "setting": "[3]; Control, 2nd study", "value": 2.3, "unit": "% w/w"}, {"measurement": "Assay % LC", "setting": "[3]; Control, 2nd study", "value": 85.8, "unit": "% LC"}, {"measurement": "% Area", "setting": "[3]; [4]", "value": 97.5, "unit": "% Area"}, {"measurement": "% w/w Impurities CBN", "setting": "[3]; [4]", "value": 1.27, "unit": "% w/w"}, {"measurement": "% w/w Impurities RRT 0.46", "setting": "[3]; [4]", "value": 0.25, "unit": "% w/w"}, {"measurement": "% w/w Impurities RRT 0.62", "setting": "[3]; [4]", "value": 0.49, "unit": "% w/w"}, {"measurement": "% w/w Impurities Total", "setting": "[3]; [4]", "value": 2.0, "unit": "% w/w"}, {"measurement": "Assay % LC", "setting": "[3]; [4]", "value": 78.6, "unit": "% LC"}, {"measurement": "% Area", "setting": "[3]; [5]", "value": 97.0, "unit": "% Area"}, {"measurement": "% w/w Impurities CBD", "setting": "[3]; [5]", "value": 0.62, "unit": "% w/w"}, {"measurement": "% w/w Impurities CBN", "setting": "[3]; [5]", "value": 0.79, "unit": "% w/w"}, {"measurement": "% w/w Impurities RRT 0.46", "setting": "[3]; [5]", "value": 0.29, "unit": "% w/w"}, {"measurement": "% w/w Impurities RRT 0.56", "setting": "[3]; [5]", "value": 0.20, "unit": "% w/w"}, {"measurement": "% w/w Impurities RRT 0.93", "setting": "[3]; [5]", "value": 0.65, "unit": "% w/w"}, {"measurement": "% w/w Impurities Total", "setting": "[3]; [5]", "value": 2.6, "unit": "% w/w"}, {"measurement": "Assay % LC", "setting": "[3]; [5]", "value": 83.7, "unit": "% LC"}, {"measurement": "% Area", "setting": "[3]; Photolytic 40 min, 2nd study", "value": 79.1, "unit": "% Area"}, {"measurement": "% w/w Impurities CBD", "setting": "[3]; Photolytic 40 min, 2nd study", "value": 8.20, "unit": "% w/w"}, {"measurement": "% w/w Impurities CBN", "setting": "[3]; Photolytic 40 min, 2nd study", "value": 1.00, "unit": "% w/w"}, {"measurement": "% w/w Impurities RRT 0.30", "setting": "[3]; Photolytic 40 min, 2nd study", "value": 0.07, "unit": "% w/w"}]}
